The numbers were not newly measured in patent US20050182026A1, “Use of phospholipids in peritoneal dialysis” (priority 2002, published 2005), which cites them from elsewhere.

SMILES strings stand for the structures.

Data set [1] deals with respiratory distress syndrome. The note with it: various physical forms, used for two decades in newborns.

As for `CCCCCCCCCCCCCCCC(=O)OC[C@H](COP(=O)([O-])OCC[N+](C)(C)C)OC(=O)CCCCCCCCCCCCCCC` [DPPC, dipalmitoylphosphatidylcholine], the solubility in water result is listed as “highly insoluble in water”. Besides, the critical micelle concentration (in water) is given as 5×10^−10 Molar. Moreover, the “safety in clinical use” value in data set [1] was “complete safety”.
